These results are taken from patent publication US20110275638A1, “PIPERAZINE DERIVATIVES AND THEIR USE AS LEPTIN RECEPTOR MODULATORS” (priority 2008, published 2011).

Assay [1] relates to JEG-3 cells. The assay can be described thus: [3H]-thymidine incorporation in JEG-3 cells (JEG-3 protocol). Conditions: FIG. 4. It counts as cell-based. The procedure: In JEG-3 cells (choriocarcinoma cell line) leptin is able to stimulate proliferation up to 3 fold (Biol. Reprod. (2007) 76: 203-10). […] The radioactivity incorporated by the cells is an index of their proliferative activity and is measured in counts per minute (CPM) with a liquid scintillation beta counter.
This finding can be applied to test whether a compound is able to either reproduce the effect of leptin on cell proliferation (leptin receptor agonist mimetic) (i.e., a given compound will cause an increase in incorporated [^3H]-Thymidine by the cells) or to inhibit the effect of leptin (antagonistic effect) by preventing the leptin-mediated increase in [^3H]-thymidine incorporation.

Assay [2] concerns JEG-3 cells. The note with it: Biol. Reprod. (2007) 76: 203-10; cited from earlier work.

Consider “leptin: hormone synthesized in fat cells that is believed to act in the hypothalamus to reduce food intake and body weight”, for which the EC50 in assay [1] (JEG-3 cells (choriocarcinoma cell line), read-out: EC50, increase in [3H]-thymidine incorporation) was 2.1 nM. The “concentration of maximal effect on [3H]-thymidine incorporation” value in assay [1] (JEG-3 cells) was determined as 100 nM. Moreover, the stimulation of proliferation result in assay [2] was “up to 3 fold”.
